Measured values as given in US5804601A, “Aromatic hydroxamic acid compounds, their production and use” (Takeda Chemical Industries, Ltd., priority 1995, dated 1998).

Tested on: rat mixed cerebral cell culture
Test: Neutralizing effect on LPS-induced cytotoxicity in a rat mixed cerebral cell culture system (LIC assay), MTT method
Format: cell-based
Conditions: concentration giving a recovery rate of 50%, usually 4-5 days incubation, read-out: ED50 (the source's name)
Method: Neutralizing effect on lipopolysaccharide (LPS)--induced cytotoxicity in a rat mixed cerebral cell culture system (LIC assay)
LPS, a substance known to activate glial cells (astrocytes, microglia), was added to a rat mixed cerebral cell culture system and the compounds which would neutralize the cytotoxicity induced by LPS were screened by the following method.
(1) Neonatal rat mixed cerebral cell culture
From neonatal Crj:CD (SD) rats (1-3 days old, Charles-River Japan, Ltd.), the brains were isolated and placed in ice-cold D-MEM/10% FCS (Dulbecco's cell culture minimal essential medium supplemented with 10% of fetal calf serum, 100 units/ml of penicillin and 100 μg/ml of streptomycin). Then, mixed cerebral cell cultures were carried out in the following steps.
1. The cerebrums were separated from the enucleated brains and the meninges was removed under the stereoscopic microscope.
2. The cerebrums were placed in a nylon-mesh (100-200 μm) bag to filter with the aid of a rubber policeman.
3. Using ice-cold D-MEM/10% FCS, the cells were washed 3 times (1000 rpm, 8 min.). Then, this cell suspension was filtered through a cell strainer (40 μm mesh, Falcon 2340) and the number of viable cells was counted by the trypan blue method.
4. The cells, were seeded in wells of a 96-well microtiter plate (Nunc) at a cell density of 1×10^5 cells/100 μl/well, and started a cell culture at 37° C.
5. One week later, 100 μl/well of D-MEM/10% FCS was added.
6. The plate was further incubated for about 1-2 weeks and the neutralizing activity of the test compound was evaluated by the following method.
(2) Evaluation of neutralizing activity in LPS-induced cytotoxicity
1. Following the rat mixed cerebral cell culture described in (1) (after 2-3 weeks of incubation), the medium was discarded from the respective wells of the 96-well microtiter plate, and 50 μl/well of fresh D-MEM/2% FCS was added.
2. A test sample and LPS (Difco, E. coli 011: B4, Bacto) of a suitable concentration, 25 μl each per well, were respectively added. D-MEM/2% FCS was used as the medium.
As the test sample, each of the compounds shown in Table 32 was dissolved in DMSO at a concentration of 10 ^-2 M and the solution was diluted with D-MEM/2% FCS and submitted for assay.
3. After a suitable period (usually 4-5 days) of incubation, the degree of cytotoxic effect was assessed by the microscopic observation, and MTT method.
(3) MTT [3-(4,5-dimethylthiazol-2-yl)-2,5-diphenyltetra zolium bromide] method
Ten μl of MTT solution (5 mg/ml, Sigma) dissolved in phosphate-buffered saline was added to each well. After 4-6 hours of incubation (37° C., under 10% CO2), 100 μl/well of 0.01N-hydrochloric acid containing 10% SDS was added, whereby the formed formazan was dissolved. After complete dissolution, the absorbance (540-590 nm) was measured for each well.
The ED50 values were determined by calculating the recovery rates by means of the following equation and plotting the concentrations of compounds giving a recovery rate of 50% on graph paper.
Recovery rate (%)=(C-B)×100/(A-B)
[A: the absorbance at 550 nm of the control well to which only the medium had been added
B: the absorbance at 550 nm of the well to which LPS had been added
C: the absorbance at 550 nm of the well to which both LPS and the test compound had been added]

SMILES	EC50 [nM]
O=C(CCCCCCc1ccc2ccccc2n1)NO [Compound 1-3, 7-(2-quinolyl)heptanohydroxamic acid]	20
O=C(CCCC/C=C\c1ccc2ccccc2n1)NO [Compound 1-4, (Z)-7-(2-quinolyl)-6-heptenohydroxamic acid]	40
N#CC(CCCCCC(=O)NO)c1cccc2ccccc12 (centres unmarked) [Compound 3-2, 7-Cyano-7-(1-naphthyl)heptanohydroxamic acid]	30
COc1ccc(C(CCCCC(=O)NOC(C)=O)C2=C(C)C(=O)c3ccccc3C2=O)cc1 (centres unmarked) [Compound 7-1, O-Acetyl-6-(4-methoxyphenyl)-6-(3-methyl-1,4-naphthoquinon-2-yl)hexanohydroxamic acid]	50
CC(=O)ONC(=O)CCCCCC(C1=C(C)C(=O)C(C)=C(C)C1=O)c1ccccc1 (centres unmarked) [Compound 7-2, O-acetyl-7-(3,5,6-trimethylbenzoquinon-2-yl)-7-phenylheptanohydroxamic acid]	50
CC(=O)ONC(=O)CCCCCCc1ccc2ccccc2c1O [Compound 7-3, O-acetyl-7-(1-hydroxy-2-naphthyl)heptano-hydroxamic acid]	400
CC(=O)ONC(=O)CCCCCc1ccc2ccccc2n1 [Compound 7-4, O-acetyl-6-(2-quinolyl)hexanohydroxamic acid]	400
CCC(=O)ONC(=O)CCCCCC(C1=C(C)C(=O)C(C)=C(C)C1=O)c1ccccc1 (centres unmarked) [Compound 7-5, O-propionyl-7-(3,5,6-trimethylbenzoquinon-2-yl)-7-phenylheptanohydroxamic acid]	50
CCC(=O)ONC(=O)CCCCC(C1=C(C)C(=O)c2ccccc2C1=O)c1ccc(OC)cc1 (centres unmarked) [Compound 7-6, O-propionyl-6-(4-methoxyphenyl)-6-(3-methyl-1,4-naphthoquinon-2-yl)hexanohydroxamic acid]	50
CCC(=O)ONC(=O)CCCCCc1ccc2ccccc2n1 [Compound 7-7, O-propionyl-6-(2-quinolyl)hexanohydroxamic acid]	500
CCC(=O)ONC(=O)CCCCCC(C#N)c1cccc2ccccc12 (centres unmarked) [Compound 7-8, O-propionyl-7-cyano-7-(1-naphthyl)heptanohydroxamic acid]	30
CC1=C(C)C(=O)C(C(CCCCCC(=O)NOC(=O)CC(C)C)c2ccccc2)=C(C)C1=O (centres unmarked) [Compound 7-9, O-isovaleryl-7-(3,5,6-trimethylbenzoquinon-2-yl)-7-phenylheptanohydroxamicacid]	200
COc1ccc(C(CCCCC(=O)NOC(=O)C(C)C)C2=C(C)C(=O)c3ccccc3C2=O)cc1 (centres unmarked) [Compound 7-10, O-isobutyryl-6-(4-methoxyphenyl)-6-(3-methyl-1,4-naphthoquinon-2-yl)hexanohydroxamic acid]	300
CC1=C(C)C(=O)C(C(CCCCCC(=O)NOC(=O)C(C)C)c2ccccc2)=C(C)C1=O (centres unmarked) [Compound 7-11, O-isobutyryl-7-(3,5,6-trimethylbenzoquinon-2-yl)-7-phenylheptanohydroxamicacid]	200
N#CC(CCCCCC(=O)NOC(=O)c1ccccc1)c1cccc2ccccc12 (centres unmarked) [Compound 7-12, O-benzoyl-7-cyano-7-(1-naphthyl)heptano-hydroxamic acid]	30
N#CC(CCCCC(=O)NOC(=O)c1ccccc1)c1cccc2ccccc12 (centres unmarked) [Compound 7-13, O-benzoyl-6-cyano-6-(1-naphthyl)hexanohyroxamic acid]	50
COc1ccc(C(CCCCC(=O)NOC(=O)c2ccccc2)C2=C(C)C(=O)c3ccccc3C2=O)cc1 (centres unmarked) [Compound 7-14, O-benzoyl-6-(4-me-Ehoxyphenyl)-6-(3-methyl-1,4-naphthoquinon-2-yl)hexanohydroxamic acid]	200
CC1=C(C)C(=O)C(C(CCCCCC(=O)NOC(=O)c2ccccc2)c2ccccc2)=C(C)C1=O (centres unmarked) [Compound 7-15, O-benzoyl-7-(3,5,6-trimethylbenzoquinon-2-yl)-7-phenylheptanohydroxamic acid]	500
O=C(CCCCCc1ccc2ccccc2n1)NOC(=O)c1ccccc1 [Compound 7-16, O-benzoyl-6-(2-quinolyl)hexanohydroxamic acid]	300
CC1=C(C)C(=O)C(C(CCCCCC(=O)NOC(=O)C(C)(C)C)c2ccccc2)=C(C)C1=O (centres unmarked) [Compound 7-17, O-pivaloyl-7-(3,5,6-trimethylbenzoquinon-2-yl)-7-phenylheptanohydroxamic acid]	200
CC1=C(C(CCCCC(=O)NO)c2ccc(F)cc2)C(=O)c2ccccc2C1=O (centres unmarked) [Compound B, 6-(4-Fluorophenyl)-6-(3-methyl-1,4-naphtho-quinon-2-yl)hexanohydroxamic acid]	500
CC1=C(C)C(=O)C(C(CCCCCC(=O)NO)c2ccccc2)=C(C)C1=O (centres unmarked) [Compound C, 7-(3,5,6-Trimethyl-1,4-benzoquinon-2-yl)-7-phenylheptanohydroxamic acid]	300
CC1=C(C)C(=O)C(C(CCCCCC(=O)NO)c2ccc(C)cc2)=C(C)C1=O (centres unmarked) [Compound D, 7-(3,5,6-Trimethyl-1,4-benzoquinon-2-yl)-7-(4-methylphenyl)heptanohydroxamic acid]	100
CC1=C(C)C(=O)C(C(CCCCCC(=O)NO)c2ccc(F)cc2)=C(C)C1=O (centres unmarked) [Compound E, 7-(4-Fluorophenyl)-7-(3,5,6-trimethyl-1,4-benzoquinon-2-yl)heptanohydroxamic acid]	600
O=C(CCCCCC(c1ccccc1)c1ccc2ccccc2c1O)NO (centres unmarked) [Reference Example 46-1, 7-(1-Hydroxy-2-naphthyl)-7-phenylheptanohydroxamic acid]	50
O=C(CCCCCc1ccc2ccccc2c1O)NO [Reference Example 46-2, 6-(1-Hydroxy-2-naphthyl)hexanohydroxamic acid]	500
